Experimental data published in the supplement of paper PMC10307832.

How the values were obtained:
Experiment in all cases: relative viability (nuclei count vs DMSO), 5 days (fraction); higher = more cells survive
201T = test system: 201T
How it was run: (§1)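 Lung cancer cell lines, seeded in 1536-well plates, were treated the following day by pin tool with a single drug or with five library-drug doses (not always all listed) in √10 steps on top of a fixed anchor-drug dose. Cells were fixed and nuclei stained in one step after 5 days, and nuclei were counted. Relative viability is the nuclei count for treated wells divided by that for vehicle wells, reported as medians of duplicate plates.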

A-427 = test system: A-427
How it was run: as §1

COR-L23 = test system: COR-L23
How it was run: as §1

H3255 = test system: H3255
How it was run: as §1

LCLC-103H = test system: LCLC-103H
How it was run: as §1

LCLC-97TM1 = test system: LCLC-97TM1
How it was run: as §1

LK-2 = test system: LK-2
How it was run: as §1

LU99A = test system: LU99A
How it was run: as §1

NCI-H1650 = test system: NCI-H1650
How it was run: as §1

NCI-H1651 = test system: NCI-H1651
How it was run: as §1

NCI-H1793 = test system: NCI-H1793
How it was run: as §1

NCI-H1944 = test system: NCI-H1944
How it was run: as §1

NCI-H2347 = test system: NCI-H2347
How it was run: as §1

NCI-H23 = test system: NCI-H23
How it was run: as §1

NCI-H460 = test system: NCI-H460
How it was run: as §1

NCI-H650 = test system: NCI-H650
How it was run: as §1

NCI-H727 = test system: NCI-H727
How it was run: as §1

NCI-H838 = test system: NCI-H838
How it was run: as §1

PC-14 = test system: PC-14
How it was run: as §1

PC-3 [JPC-3] = test system: PC-3 [JPC-3]
How it was run: as §1

RERF-LC-KJ = test system: RERF-LC-KJ
How it was run: as §1

SW 1573 = test system: SW 1573
How it was run: as §1

SW 900 = test system: SW 900
How it was run: as §1

C[C@@H]1CN(CC(=O)Nc2ccc3c(c2)Cc2cccc(-c4cc(=O)cc(N5CCOCC5)o4)c2S3)C[C@H](C)O1 + CC(=O)Nc1cccc(-n2c(=O)n(C3CC3)c(=O)c3c(Nc4ccc(I)cc4F)n(C)c(=O)c(C)c32)c1 [Trametinib] (partner 0.02 µM)
relative viability (201T; first compound 0.04 µM): 0.732
relative viability (201T; first compound 0.1265 µM): 0.728
relative viability (201T; first compound 0.4 µM): 0.675
relative viability (201T; first compound 4 µM): 0.739
relative viability (A-427; first compound 0.04 µM): 0.682
relative viability (A-427; first compound 0.1265 µM): 0.755
relative viability (A-427; first compound 0.4 µM): 0.678
relative viability (A-427; first compound 4 µM): 0.583
relative viability (COR-L23; first compound 0.04 µM): 0.596
relative viability (COR-L23; first compound 0.1265 µM): 0.611
relative viability (COR-L23; first compound 0.4 µM): 0.624
relative viability (COR-L23; first compound 4 µM): 0.447
relative viability (H3255; first compound 0.04 µM): 0.584
relative viability (H3255; first compound 0.1265 µM): 0.601
relative viability (H3255; first compound 0.4 µM): 0.473
relative viability (H3255; first compound 4 µM): 0.437
relative viability (LCLC-103H; first compound 0.04 µM): 0.668
relative viability (LCLC-103H; first compound 0.1265 µM): 0.629
relative viability (LCLC-103H; first compound 0.4 µM): 0.68
relative viability (LCLC-103H; first compound 4 µM): 0.693
relative viability (LCLC-97TM1; first compound 0.1265 µM): 0.165
relative viability (LCLC-97TM1; first compound 0.4 µM): 0.165
relative viability (LCLC-97TM1; first compound 4 µM): 0.175
relative viability (LK-2; first compound 0.04 µM): 0.874
relative viability (LK-2; first compound 0.1265 µM): 0.756
relative viability (LK-2; first compound 0.4 µM): 0.709
relative viability (LK-2; first compound 4 µM): 0.912
relative viability (LU99A; first compound 0.04 µM): 0.508
relative viability (LU99A; first compound 0.1265 µM): 0.534
relative viability (LU99A; first compound 0.4 µM): 0.587
relative viability (LU99A; first compound 4 µM): 0.59
relative viability (NCI-H1650; first compound 0.04 µM): 0.535
relative viability (NCI-H1650; first compound 0.1265 µM): 0.548
relative viability (NCI-H1650; first compound 0.4 µM): 0.596
relative viability (NCI-H1650; first compound 4 µM): 0.286
relative viability (NCI-H1651; first compound 0.04 µM): 0.874
relative viability (NCI-H1651; first compound 0.1265 µM): 0.894
relative viability (NCI-H1651; first compound 0.4 µM): 0.83
relative viability (NCI-H1651; first compound 4 µM): 0.629
relative viability (NCI-H1793; first compound 0.04 µM): 0.349
relative viability (NCI-H1793; first compound 0.1265 µM): 0.415
relative viability (NCI-H1793; first compound 0.4 µM): 0.381
relative viability (NCI-H1793; first compound 4 µM): 0.34
relative viability (NCI-H1944; first compound 0.1265 µM): 0.412
relative viability (NCI-H1944; first compound 0.4 µM): 0.4
relative viability (NCI-H1944; first compound 4 µM): 0.425
relative viability (NCI-H2347; first compound 0.04 µM): 0.273
relative viability (NCI-H2347; first compound 0.1265 µM): 0.331
relative viability (NCI-H2347; first compound 0.4 µM): 0.319
relative viability (NCI-H2347; first compound 4 µM): 0.238
relative viability (NCI-H23; first compound 0.04 µM): 0.356
relative viability (NCI-H23; first compound 0.1265 µM): 0.348
relative viability (NCI-H23; first compound 0.4 µM): 0.336
relative viability (NCI-H23; first compound 4 µM): 0.286
relative viability (NCI-H460; first compound 0.04 µM): 0.155
relative viability (NCI-H460; first compound 0.1265 µM): 0.131
relative viability (NCI-H460; first compound 0.4 µM): 0.13
relative viability (NCI-H460; first compound 4 µM): 0.0347
relative viability (NCI-H650; first compound 0.04 µM): 0.954
relative viability (NCI-H650; first compound 0.1265 µM): 1
relative viability (NCI-H650; first compound 0.4 µM): 0.874
relative viability (NCI-H650; first compound 4 µM): 0.697
relative viability (NCI-H727; first compound 0.04 µM): 0.386
relative viability (NCI-H727; first compound 0.1265 µM): 0.396
relative viability (NCI-H727; first compound 0.4 µM): 0.379
relative viability (NCI-H727; first compound 4 µM): 0.386
relative viability (NCI-H838; first compound 0.04 µM): 0.688
relative viability (NCI-H838; first compound 0.1265 µM): 0.488
relative viability (NCI-H838; first compound 0.4 µM): 0.521
relative viability (NCI-H838; first compound 4 µM): 0.39
relative viability (PC-14; first compound 0.04 µM): 0.872
relative viability (PC-14; first compound 0.1265 µM): 0.694
relative viability (PC-14; first compound 0.4 µM): 0.719
relative viability (PC-14; first compound 4 µM): 0.467
relative viability (PC-3 [JPC-3]; first compound 0.04 µM): 0.808
relative viability (PC-3 [JPC-3]; first compound 0.1265 µM): 0.665
relative viability (PC-3 [JPC-3]; first compound 0.4 µM): 0.666
relative viability (PC-3 [JPC-3]; first compound 4 µM): 0.634
relative viability (RERF-LC-KJ; first compound 0.04 µM): 0.874
relative viability (RERF-LC-KJ; first compound 0.1265 µM): 0.796
relative viability (RERF-LC-KJ; first compound 0.4 µM): 0.757
relative viability (RERF-LC-KJ; first compound 4 µM): 0.695
relative viability (SW 1573; first compound 0.04 µM): 0.646
relative viability (SW 1573; first compound 0.1265 µM): 0.564
relative viability (SW 1573; first compound 0.4 µM): 0.572
relative viability (SW 1573; first compound 4 µM): 0.627
relative viability (SW 900; first compound 0.04 µM): 0.894
relative viability (SW 900; first compound 0.1265 µM): 0.696
relative viability (SW 900; first compound 0.4 µM): 0.892
relative viability (SW 900; first compound 4 µM): 0.572
